# Data reported in patent publication US20240325389A1, “NEW THERAPEUTIC TARGETS WITH AN ANTI-INFLAMMATORY AND ANTI-INTERFERON EFFECT” (priority 2020, published 2024).
# Like-named read-outs stand apart in the source and are kept apart here.
# Assays:
# T lymphocytes = test: Activation of T lymphocytes by CD3/CD28 beads (CD69), flow cytometry; type: cell-based, human; settings: inhibitor 1 h at 1 and 5 μM, then CD3/CD28 beads 3 days
# [1] = system: peripheral blood mononuclear cells (PBMCs) of healthy donors; test: Cytokine and interferon secretion by PBMCs in response to HIV, LegendPlex; type: cell-based, human; settings: inhibitor 1 h before AT-2-inactivated HIV-1MN, 24 h
# [2] = system: peripheral blood mononuclear cells (PBMCs) of healthy donors; test: Cytokine and interferon secretion by PBMCs after TLR4 (LPS) stimulation, LegendPlex; type: cell-based, human; settings: inhibitor 1 h before LPS 100 ng/ml (TLR4), 24 h
# THP1-Dual [3] = test: mRNA encoding TNFα, IL6 and MCP1 in LPS-activated THP1-Dual monocytes, RT-qPCR; type: cell-based, human; settings: inhibitor 1 h before LPS 100 ng/ml
# [4] = system: peripheral blood mononuclear cells (PBMCs); test: Interferon production by cGAMP-stimulated PBMCs, STING-37 reporter
# [5] = system: plasmacytoid dendritic cells (pDC) of healthy donors; test: Intracellular IFNα and TNFα in plasmacytoid dendritic cells in response to HIV, flow cytometry; type: cell-based, human; settings: inhibitor 1 h before AT-2-inactivated HIV-1MN, 16 h
# [6] = system: peripheral blood mononuclear cells (PBMCs) of healthy donors; test: Interferons secreted by R848-stimulated PBMCs, STING-37 reporter cell line; type: cell-based, human
# [7] = system: peripheral blood mononuclear cells (PBMCs) of healthy donors; test: Test for toxicity of the compounds on PBMCs (CellTiter-Glo, ATP); type: cell-based, human; settings: 24 h of cell culture
# Method: Test for toxicity of the compounds on the peripheral blood mononuclear cells (PBMCs).
# After 24 h of cell culture, the cell viability was determined using the CellTiter-Glo reagent (Promega), which evaluates the amount of ATP by luminescence using the EnSpire.
# DBA/1J mice = settings: for total average arthritis scores (histopathology): with respect to the control vehicle
# [8] = system: peripheral blood mononuclear cells (PBMCs) of healthy donors; test: Cytokine and interferon secretion by PBMCs after TLR7/8 (R848) stimulation, LegendPlex; type: cell-based, human; settings: for production and secretion of pro-inflammatory cytokines, such as IL-6, IL-1p and the interferons induced by the TLR7/8 stimulation / production of TNFα induced by the TLR7/8 stimulation: human PBMCs incubated with inhibitor before R848
# [9] = system: monocytes of healthy donors; test: Intracellular IL-1β and TNFα in monocytes after inflammasome activation by uric acid crystals (MSU, gout model), flow cytometry; type: cell-based, human; settings: for production of inflammatory cytokines: monocytes of healthy donors, activation of the inflammasome by uric acid crystals
# B lymphocytes = test: Activation of B lymphocytes by CpG-A (CD69), flow cytometry; type: cell-based, human; settings: inhibitor 1 h at 1 μM, then CpG-A 1 μg/ml (TLR9) 24 h
# [10] = system: monocytes of patients suffering from juvenile idiopathic arthritis; test: Spontaneous TNFα production by monocytes of juvenile idiopathic arthritis patients, SIMOA; type: cell-based, human; settings: monocytes incubated with inhibitor for 24 h, no stimulation
# THP1-Dual [11] = test: Interferon response of cGAMP-stimulated THP1-Dual cells, luciferase
# HEK293 = test: Interferon production by cGAMP-stimulated HEK293 non-immune cells (STING-37), luciferase; settings: inhibitor at 1 μM, cGAMP 3 μg/ml, 24 h
# [12] = system: 1C11^5-HT serotonergic neurons; test: mRNA encoding TNFα, IL6 and MCP1 in LPS-activated 1C11^5-HT neurons, RT-qPCR; type: cell-based, Mus; settings: inhibitor 1 h before LPS 100 ng/ml
# [13] = system: monocytes of healthy donors; test: Intracellular TNFα production in monocytes after TLR4 (LPS) stimulation, flow cytometry; type: cell-based, human; settings: for production of inflammatory cytokines: PBMCs and purified monocytes of healthy donors, Toll-like receptors 2/4 (lipoteichoic acid/LPS)
# [14] = system: 1C11 neuroectodermal stem cells; test: mRNA encoding TNFα, IL6 and MCP1 in LPS-activated 1C11 stem cells, RT-qPCR; type: cell-based, Mus; settings: inhibitor 1 h before LPS 100 ng/ml
# [15] = system: monocytes of healthy donors; test: Intracellular TNFα production in monocytes after TLR7/8 (R848) stimulation, flow cytometry; type: cell-based, human; settings: for production of inflammatory cytokines: PBMCs and purified monocytes of healthy donors, Toll-like receptor 7/8 (R848); for intracellular production of inflammatory cytokines (TNFα): monocytes, inhibitor 1 h before R848 5 μg/ml (TLR7/8), 16 h
# [16] = system: monocytes of healthy donors; test: Intracellular TNFα production in monocytes after TLR2 (LTA) stimulation, flow cytometry; type: cell-based, human; settings: inhibitor 1 h before LTA 1 μg/ml (TLR2), 16 h
# [17] = system: neurones infected by the prions; type: cell-based
# [18] = cGAMP stimulation, CellTiter Glo
# [19] = 10 mg/kg daily oral, terminal plasma, ELISA
# [20] = monocytes, inhibitor 1 h before MSU 50 μg/ml, 16 h
smiles,measurement,setting,value
O=C(Nc1cccc(Nc2ncc(Br)c(NCCc3c[nH]cn3)n2)c1)N1CCCC1 [BX912],expression of the CD69 marker at the surface of the T lymphocytes,T lymphocytes,"inhibits, according to a dosage effect"
same,viability of the T lymphocytes,T lymphocytes,without affecting the viability
same,"secretion of the inflammatory cytokines (IL-6, IL-1β, TNFα, P10) and the interferons (IFNα2, IFNβ, IFN11)",[1],inhibits
same,"secretion of the inflammatory cytokines (IL-6, IL-1β, TNFα, GM-CSF, IL-10) and the interferons (IFNI⅔, IFNβ, IFNg)",[2],inhibits
same,"concentration from which the transcription of the gene encoding TNFα, IL6 and MCP1 induced by LPS is reduced, according to a dosage effect",THP1-Dual [3],≥ 0.5 µM
same,"concentration from which the production of interferons (IFN) induced by cGAMP is blocked, according to a dosage effect","[4]; PBMCs, inhibitor 1 h before cGAMP 3 μg/ml, 24 h",≥ 1 µM
same,viability of the PBMCs,[4]; [18],without affecting the viability
same,intracellular production of interferon IFNα,[5],inhibits
same,production of TNFα,[5],inhibits
same,secretion of interferons,"[6]; curative: inhibitor 1 h after R848 (TLR7/8) stimulation, FIG. 15C",blocking
same,secretion of interferons,"[6]; inhibitor during the R848 (TLR7/8) stimulation, FIG. 15B",blocking
same,secretion of interferons,"[6]; preventive: inhibitor 1 h before R848 (TLR7/8) stimulation, FIG. 15A",blocking
same,toxicity on the peripheral blood mononuclear cells (PBMCs),[7]; PBMCs infected with HIV,no toxicity
same,toxicity on the peripheral blood mononuclear cells (PBMCs),[7]; stimulation of the TLR4 receptors,no toxicity
same,toxicity on the immune cells (PBMCs),[7]; stimulation of the TLR7/8 receptors,no toxicity
same,effect on progression and severity of the disease,DBA/1J mice; 0.5 mg/kg daily oral (group 3),no ameliorative effect
same,total average arthritis scores (histopathology),DBA/1J mice; 0.5 mg/kg daily oral (group 3),slight reductions
same,rate of progression of the disease,DBA/1J mice; 2 mg/kg daily oral (group 4),significant reduction
same,reduction in the (overall) severity of the disease at the end of the study,DBA/1J mice; 2 mg/kg daily oral (group 4),56%
same,reduction in the (overall) severity of the disease at the end of the study,DBA/1J mice; 10 mg/kg daily oral,82%
same,progression of the disease,DBA/1J mice; 10 mg/kg daily oral (group 5),stopped
same,reduction in the terminal plasma levels of IL-1i,"DBA/1J mice; 10 mg/kg daily oral (group 5), ELISA",37%
same,decrease in terminal plasma IL-6,DBA/1J mice; [19],62%
same,rate of progression of the disease and severity of the disease,"DBA/1J mice; daily oral, 0.5, 2 and 10 mg/kg",dose-dependent reduction
same,"secretion of the inflammatory cytokines (IL-6, IL-1β, TNFα, IP10, GM-CSF, IL-10) and the interferons (IFN11, IFN12/3, IFNβ, IFNg)","[8]; PBMCs, inhibitor 1 h before R848 5 μg/ml (TLR7/8), 24 h",inhibits
same,production of inflammatory cytokines,[9],capable of inhibiting
same,intracellular production of IL-1β,[9]; [20],inhibits
same,production of TNFα,[9]; [20],inhibits
same,expression of the CD69 marker at the surface of the B lymphocytes,B lymphocytes,"inhibits, according to a dosage effect"
same,viability of the B lymphocytes,B lymphocytes,without affecting the viability
same,spontaneous production of TNFα,[10],inhibits
same,"concentration from which the production of interferons (IFN) induced by cGAMP is blocked, according to a dosage effect","THP1-Dual [11]; THP1-Dual, inhibitor 1 h before cGAMP 3 μg/ml, 24 h",≥ 1 µM
same,viability of the THP1-Dual,THP1-Dual [11]; [18],without affecting the viability
same,production of interferon induced by the STING ligand,HEK293,does not block
same,"transcription of the genes encoding TNFα, IL6 and MCP1 induced by LPS",[12],does not block
same,production of inflammatory cytokines,[13],capable of inhibiting
same,production of inflammatory cytokines (TNFα),"[13]; monocytes, inhibitor 1 h before LPS 100 ng/ml (TLR4), 16 h","inhibits, according to a dosage effect"
same,"transcription of the genes encoding TNFα, IL6 and MCP1 induced by LPS",[14],does not block
same,production of inflammatory cytokines,[15],capable of inhibiting
same,intracellular production of inflammatory cytokines (TNFα),[15],"inhibits, according to a dosage effect"
same,production of inflammatory cytokines (TNFα),[16],"inhibits, according to a dosage effect"
C[C@@H](N)[C@H]1CC[C@H](C(=O)Nc2ccncc2)CC1 [Y27632],level of TNFα in the culture medium,[17],re-establishes
same,"production and secretion of pro-inflammatory cytokines, such as IL-6, IL-1p and the interferons induced by the TLR7/8 stimulation",[8],inhibits
same,production of TNFα induced by the TLR7/8 stimulation,[8],inhibits
same,production of inflammatory cytokines,[9],capable of inhibiting
same,production of inflammatory cytokines,[13],capable of inhibiting
same,production of inflammatory cytokines,[15],capable of inhibiting
same,intracellular production of inflammatory cytokines (TNFα),[15],"inhibits, according to a dosage effect"
"Cc1cncc2cccc(S(=O)(=O)N3CCCNCC3C)c12 (centres unmarked) [formula (VIII), dimethylfasudil]",level of TNFα in the culture medium,[17],re-establishes
same,"production and secretion of pro-inflammatory cytokines, such as IL-6, IL-1p and the interferons induced by the TLR7/8 stimulation",[8],inhibits
same,production of TNFα induced by the TLR7/8 stimulation,[8],inhibits
"C[C@]12C=CC(=O)C=C1CC[C@@H]1[C@@H]2[C@@H](O)C[C@@]2(C)[C@H]1CC[C@]2(O)C(=O)CO [prednisolone, reference compound]",reduction in the (overall) severity of the disease at the end of the study,DBA/1J mice; 10 mg/kg daily oral,95%
same,decrease in plasma IFNγ,DBA/1J mice; [19],49%
same,decrease in plasma TNFα,DBA/1J mice; [19],54%
same,decrease in terminal plasma IL-6,DBA/1J mice; [19],70%
same,total average arthritis scores (histopathology),DBA/1J mice; 10 mg/kg daily oral,lowest
